Test results reported in ChEMBL document CHEMBL1201862, “PubChem BioAssay data set” (2004).
Activity calls are given as the source filed them. Unless noted, the calls are words filed in the database; no cut-off is given here.

Legend:
[1] = target: Beta-galactosidase (Escherichia coli, UniProt Q8VNN2); test: PubChem AID 485352; format: functional
[2] = target: Type-1 angiotensin II receptor (Homo sapiens, UniProt P30556); test: AT1 receptor antagonists, dose response, selectivity assay for APJ receptor antagonist project, cell-based, uHTS hits (AID 463214); format: functional;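 further: antagonist potency against angiotensin II stimulated AT1 response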
[3] = target: T1, Bcl-2-related protein A1 (Mus musculus, UniProt Q07440); format: functional;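 further: confirmatory dose–response counterscreen on Bfl-1, used to check hits from a UBC13 polyubiquitin inhibitor campaign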
T1 sequence (Q07440 whole entry): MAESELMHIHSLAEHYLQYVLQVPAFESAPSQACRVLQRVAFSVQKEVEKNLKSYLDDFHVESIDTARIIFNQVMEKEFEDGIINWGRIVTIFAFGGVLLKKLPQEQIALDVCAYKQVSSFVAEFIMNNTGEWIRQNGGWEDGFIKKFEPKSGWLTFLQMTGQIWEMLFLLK

[4] = target: T2, Ubiquitin-conjugating enzyme E2 N (Homo sapiens, UniProt P61088); format: functional;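 further: Dose-response confirmation in a TR-FRET assay detecting UBC13-driven polyubiquitin chain formation, inhibition measured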
T2 sequence (P61088 whole entry): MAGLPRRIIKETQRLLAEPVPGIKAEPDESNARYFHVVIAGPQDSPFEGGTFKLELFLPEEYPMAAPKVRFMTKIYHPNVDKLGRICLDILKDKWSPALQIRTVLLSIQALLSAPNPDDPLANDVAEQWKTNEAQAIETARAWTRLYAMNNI

[5] = target: Melanocortin receptor 4 (Homo sapiens, UniProt P32245); test: MC4R antagonist potency on cAMP, dose response, cell-based, TR-FRET, biased antagonists (AID 602298); format: functional;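 further: antagonist potency against agonist-stimulated cAMP production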
[6] = nonselective inhibitors of cellular cAMP signaling, dose response, counter-screen for MC4R biased antagonist project, cell-based, TR-FRET cAMP detection (AID 602305); format: functional;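 further: U2OS cells stimulated with forskolin near its EC80 as the cAMP inducer; potency is for inhibition of forskolin-stimulated cAMP signaling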
[7] = target: T3, DNA repair protein RAD52 homolog (Homo sapiens, UniProt P43351); format: functional, biochemical
T3 sequence (P43351 whole entry): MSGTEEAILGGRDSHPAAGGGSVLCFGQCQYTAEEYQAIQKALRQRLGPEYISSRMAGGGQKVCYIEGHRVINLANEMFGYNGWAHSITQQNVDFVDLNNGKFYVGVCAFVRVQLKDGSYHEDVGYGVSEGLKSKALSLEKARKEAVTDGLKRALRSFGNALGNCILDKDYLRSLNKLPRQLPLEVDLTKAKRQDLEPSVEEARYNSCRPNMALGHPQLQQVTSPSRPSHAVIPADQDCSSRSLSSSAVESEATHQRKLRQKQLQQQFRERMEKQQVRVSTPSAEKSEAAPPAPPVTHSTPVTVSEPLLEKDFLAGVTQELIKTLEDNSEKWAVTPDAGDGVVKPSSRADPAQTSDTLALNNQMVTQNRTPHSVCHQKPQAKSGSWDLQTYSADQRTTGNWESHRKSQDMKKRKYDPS

[8] = target: Phospholipase D1 (Homo sapiens, UniProt Q13393); test: PLD1 purified enzyme concentration response. [Related pubchem assays (depositor defined):AID588854]; format: functional
[9] = target: Phospholipase D2 (Homo sapiens, UniProt O14939); test: PLD2 purified enzyme concentration response. [Related pubchem assays (depositor defined):AID588854]; format: functional
[10] = Vero cell cytotoxicity, cytotoxicity control for M. tuberculosis inhibitor project, purified and synthesized samples, set 8 (AID 602431); format: functional; settings: Mycobacterium tuberculosis
[11] = HepG2 cell cytotoxicity, cytotoxicity control, set 6 (AID 602432); format: functional; settings: Mycobacterium tuberculosis
[12] = THP-1 cell cytotoxicity, cytotoxicity control, set 6 (AID 602433); format: functional; settings: Mycobacterium tuberculosis

Sequence of Phospholipase D1 (Q13393 whole entry): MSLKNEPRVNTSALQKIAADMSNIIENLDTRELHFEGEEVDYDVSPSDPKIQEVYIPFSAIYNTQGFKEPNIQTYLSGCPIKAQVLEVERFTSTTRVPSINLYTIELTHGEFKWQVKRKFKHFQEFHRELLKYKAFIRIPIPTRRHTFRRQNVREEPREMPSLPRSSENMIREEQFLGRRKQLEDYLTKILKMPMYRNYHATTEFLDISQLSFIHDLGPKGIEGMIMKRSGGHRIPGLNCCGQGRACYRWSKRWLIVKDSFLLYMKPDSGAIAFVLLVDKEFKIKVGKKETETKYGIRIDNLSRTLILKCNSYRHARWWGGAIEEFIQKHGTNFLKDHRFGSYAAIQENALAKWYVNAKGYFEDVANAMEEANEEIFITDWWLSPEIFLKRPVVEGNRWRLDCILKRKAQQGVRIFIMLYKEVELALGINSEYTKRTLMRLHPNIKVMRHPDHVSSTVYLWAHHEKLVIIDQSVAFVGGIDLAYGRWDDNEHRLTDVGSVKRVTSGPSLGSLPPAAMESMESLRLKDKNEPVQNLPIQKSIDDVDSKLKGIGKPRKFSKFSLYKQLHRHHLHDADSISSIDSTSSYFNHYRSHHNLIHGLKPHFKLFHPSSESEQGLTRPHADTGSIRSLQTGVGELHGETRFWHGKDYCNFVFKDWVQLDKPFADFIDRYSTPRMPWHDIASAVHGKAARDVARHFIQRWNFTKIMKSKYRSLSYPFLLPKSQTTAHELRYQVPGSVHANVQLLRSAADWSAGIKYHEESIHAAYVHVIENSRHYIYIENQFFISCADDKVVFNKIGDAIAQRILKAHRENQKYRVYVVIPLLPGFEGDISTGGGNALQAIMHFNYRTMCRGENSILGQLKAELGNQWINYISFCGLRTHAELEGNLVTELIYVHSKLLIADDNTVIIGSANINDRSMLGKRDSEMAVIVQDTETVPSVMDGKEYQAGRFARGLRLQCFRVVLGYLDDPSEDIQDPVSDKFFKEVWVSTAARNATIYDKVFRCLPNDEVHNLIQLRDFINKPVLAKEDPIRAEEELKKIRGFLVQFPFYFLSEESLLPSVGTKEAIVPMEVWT
Sequence of Beta-galactosidase (Q8VNN2 whole entry): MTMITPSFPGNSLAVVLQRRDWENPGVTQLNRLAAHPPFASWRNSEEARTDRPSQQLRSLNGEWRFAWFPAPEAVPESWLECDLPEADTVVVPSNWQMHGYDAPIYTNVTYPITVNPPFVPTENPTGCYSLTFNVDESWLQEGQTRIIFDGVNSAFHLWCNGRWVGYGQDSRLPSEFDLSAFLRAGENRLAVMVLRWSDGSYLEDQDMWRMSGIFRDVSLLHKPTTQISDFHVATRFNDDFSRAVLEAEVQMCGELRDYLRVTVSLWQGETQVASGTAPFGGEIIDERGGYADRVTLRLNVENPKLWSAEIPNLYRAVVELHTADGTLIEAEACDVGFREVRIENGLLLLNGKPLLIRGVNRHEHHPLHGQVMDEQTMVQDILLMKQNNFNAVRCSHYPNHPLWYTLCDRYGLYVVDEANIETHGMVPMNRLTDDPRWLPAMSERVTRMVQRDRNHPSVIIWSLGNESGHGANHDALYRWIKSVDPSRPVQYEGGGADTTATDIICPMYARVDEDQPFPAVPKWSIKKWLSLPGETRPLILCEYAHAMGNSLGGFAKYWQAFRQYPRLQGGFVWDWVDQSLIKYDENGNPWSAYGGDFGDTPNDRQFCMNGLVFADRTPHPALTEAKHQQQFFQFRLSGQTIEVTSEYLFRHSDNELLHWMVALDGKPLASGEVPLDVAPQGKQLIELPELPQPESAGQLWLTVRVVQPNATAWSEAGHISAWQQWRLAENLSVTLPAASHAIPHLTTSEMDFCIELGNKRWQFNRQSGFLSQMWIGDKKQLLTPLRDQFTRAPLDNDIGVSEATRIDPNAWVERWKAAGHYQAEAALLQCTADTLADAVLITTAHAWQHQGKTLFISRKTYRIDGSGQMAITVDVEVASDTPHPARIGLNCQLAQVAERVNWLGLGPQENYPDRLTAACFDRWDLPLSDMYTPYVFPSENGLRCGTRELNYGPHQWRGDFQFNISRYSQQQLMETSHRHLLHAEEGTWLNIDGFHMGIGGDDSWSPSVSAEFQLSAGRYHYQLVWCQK
Sequence of Type-1 angiotensin II receptor (P30556 whole entry): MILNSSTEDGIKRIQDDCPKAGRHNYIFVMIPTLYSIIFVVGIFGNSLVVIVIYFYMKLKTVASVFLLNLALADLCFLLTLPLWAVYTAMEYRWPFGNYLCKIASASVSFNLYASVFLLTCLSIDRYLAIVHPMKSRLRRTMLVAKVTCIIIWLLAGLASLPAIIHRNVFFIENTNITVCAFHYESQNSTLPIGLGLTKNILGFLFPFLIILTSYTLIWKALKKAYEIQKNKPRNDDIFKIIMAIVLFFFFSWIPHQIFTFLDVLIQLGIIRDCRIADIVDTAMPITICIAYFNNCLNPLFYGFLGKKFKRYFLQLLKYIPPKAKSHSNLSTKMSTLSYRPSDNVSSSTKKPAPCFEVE
Sequence of Phospholipase D2 (O14939 whole entry): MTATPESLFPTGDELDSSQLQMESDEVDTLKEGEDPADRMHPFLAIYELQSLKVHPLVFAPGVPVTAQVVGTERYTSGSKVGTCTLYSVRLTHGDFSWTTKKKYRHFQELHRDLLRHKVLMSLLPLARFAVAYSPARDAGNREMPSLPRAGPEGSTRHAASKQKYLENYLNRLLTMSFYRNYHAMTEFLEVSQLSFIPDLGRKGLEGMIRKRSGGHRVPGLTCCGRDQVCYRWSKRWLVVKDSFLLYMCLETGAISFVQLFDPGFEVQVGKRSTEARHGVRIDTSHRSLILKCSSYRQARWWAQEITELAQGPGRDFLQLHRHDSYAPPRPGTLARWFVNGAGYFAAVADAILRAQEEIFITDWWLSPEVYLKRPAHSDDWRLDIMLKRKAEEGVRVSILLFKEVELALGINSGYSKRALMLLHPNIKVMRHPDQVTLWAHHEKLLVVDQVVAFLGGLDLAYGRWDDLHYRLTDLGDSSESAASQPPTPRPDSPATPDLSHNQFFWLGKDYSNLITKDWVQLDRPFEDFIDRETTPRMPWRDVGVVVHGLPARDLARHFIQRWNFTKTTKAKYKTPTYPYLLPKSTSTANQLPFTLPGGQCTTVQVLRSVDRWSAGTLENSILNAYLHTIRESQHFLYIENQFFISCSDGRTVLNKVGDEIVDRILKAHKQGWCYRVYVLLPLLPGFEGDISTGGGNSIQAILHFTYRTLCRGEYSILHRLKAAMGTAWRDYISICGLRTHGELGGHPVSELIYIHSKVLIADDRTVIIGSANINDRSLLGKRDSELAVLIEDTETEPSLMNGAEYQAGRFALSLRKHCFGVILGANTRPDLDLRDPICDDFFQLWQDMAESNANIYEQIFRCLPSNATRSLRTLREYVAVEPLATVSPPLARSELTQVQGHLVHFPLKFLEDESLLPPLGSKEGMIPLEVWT
Sequence of Melanocortin receptor 4 (P32245 whole entry): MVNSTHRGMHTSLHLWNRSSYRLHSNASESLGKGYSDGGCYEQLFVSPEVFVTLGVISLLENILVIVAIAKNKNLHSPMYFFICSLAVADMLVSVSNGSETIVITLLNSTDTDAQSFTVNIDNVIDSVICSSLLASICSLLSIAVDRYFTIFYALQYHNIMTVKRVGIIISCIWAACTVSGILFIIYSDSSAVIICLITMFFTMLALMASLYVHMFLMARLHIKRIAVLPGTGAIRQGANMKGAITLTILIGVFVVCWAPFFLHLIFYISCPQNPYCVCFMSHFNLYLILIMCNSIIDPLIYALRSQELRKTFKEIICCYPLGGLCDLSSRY

For `CCC[C@@H](CN1CCC[C@H]1CN1C(N)=NC[C@H]1CC(C)C)N1C[C@@H](Cc2ccccc2)N(CCc2ccc(Cl)c(Cl)c2)C1=N`, the EC50 [1] was > 40 µM (inactive), the IC50 [2] was > 40 µM (not active) and the IC50 [3] was > 20 µM (inactive). For the same compound, the IC50 [4] was 12.5 µM (active), the IC50 [5] was 7.65 µM (active) and the IC50 [6] was > 64.6 µM (inactive). For the same compound, the AC50 [7] was 14.7 µM (active).

For `O=C(NCCN1CCC2(CC1)C(=O)NCN2c1ccc(F)c(F)c1)c1ccc2ccccc2c1`, the IC50 [8] was 20 µM (active) and the IC50 [9] was 0.098 µM (active).

With `O=C(NCc1ccc(C(=O)N2CCC(c3ccccc3)CC2)cc1)NC1CCCCC1` the CC50 [10] was 82.5 µM (active), the CC50 [11] was > 50 µM (inconclusive) and the CC50 [12] was 65.8 µM (active).
